We go through three compounds from ChEMBL document CHEMBL1148138, “New eremophilenolides from Ligulariopsis shichuana” (2002).

The subject of one test is Bacillus subtilis. Description: Antibacterial activity against Bacillus subtilis at 100 ug/mL after 24 hrs by cup-plate method. Particulars: read-out: Diameter of inhibition zone. In kind it is functional.
The test system of another test is Escherichia coli. Description: Antibacterial activity against Escherichia coli at 100 ug/mL after 24 hrs by cup-plate method. In kind it is functional. Particulars: read-out: Diameter of inhibition zone.

The zone of inhibition is the extent of the growth-free halo in a diffusion test. Turning to `C/C=C(/C)C(=O)O[C@@H]1[C@@]23O[C@@H]2C[C@H](OC(C)=O)[C@H](C)[C@@]3(C)CC2=C(C)C(=O)O[C@@]21O`, the zone of inhibition at 100 µg/mL with Bacillus subtilis and with Escherichia coli was 13 mm each time.
For `CC(C)=CC(=O)O[C@H]1C[C@H]2O[C@]23C[C@@]2(O)OC(=O)C(C)=C2C[C@]3(C)[C@H]1C`, the zone of inhibition at 100 µg/mL turned out to be 16 mm in the test with Bacillus subtilis and 13 mm with Escherichia coli.
The matching figures for `O=C(N[C@H](CO)[C@H](O)c1ccc([N+](=O)[O-])cc1)C(Cl)Cl` [CHLORAMPHENICOL]: 16 mm and 16 mm.
